Data set [1] can be described thus: xn = mol fraction of the nth substance listed. The note with it: Liquid, Vibrating tube method.
For data set [2] the following is noted: for mass density: Vibrating tube method; for vapor or sublimation pressure: isothermal bubble-point pressure.

SMILES strings stand for the structures. Numbers after ± are expanded uncertainties.

As a reminder, the mass density is the mass of a sample divided by its volume. With `CNC=O` [N-methylformamide] + Cc1ccc(C)cc1, the mass density was found to be 967.461 ± 0.23 kg/m3 in data set [1] (333.15 K, x2 = 0); 958.765 ± 0.23 kg/m3 in data set [1] (343.15 K, x2 = 0); 949.98 ± 0.23 kg/m3 in data set [1] (353.15 K, x2 = 0).
For orientation: vapor or sublimation pressure means the equilibrium pressure above the liquid or solid. As for `Cc1ccc(C)cc1` [1,4-dimethylbenzene], the mass density in data set [2] (333.15 K, Gas) worked out at 0.262 ± 0.1 kg/m3; in data set [2] (333.15 K, Liquid), 825.539 ± 0.24 kg/m3; in data set [2] (343.15 K, Gas) it was 0.3903 ± 0.1 kg/m3; in data set [2] (343.15 K, Liquid), 816.664 ± 0.24 kg/m3; in data set [2] (353.15 K, Gas), 0.5636 ± 0.1 kg/m3; in data set [2] (353.15 K, Liquid) it was 807.649 ± 0.24 kg/m3. The “vapor or sublimation pressure” value in data set [2] (333.15 K, Liquid) is recorded as 6.85 ± 0.03 kPa; in data set [2] (343.15 K, Liquid) it was 10.5 ± 0.03 kPa; in data set [2] (353.15 K, Liquid) it was 15.61 ± 0.04 kPa.
For `Cc1cccc(C)c1` [1,3-dimethylbenzene] + CNC=O, the mass density in data set [1] (333.15 K, x1 = 1) is 829.305 ± 0.24 kg/m3; in data set [1] (343.15 K, x1 = 1), 820.443 ± 0.24 kg/m3; in data set [1] (353.15 K, x1 = 1), 811.602 ± 0.24 kg/m3.
`Cc1ccc(C)cc1` [1,4-dimethylbenzene] + CNC=O: the mass density is given as 825.539 ± 0.24 kg/m3 in data set [1] (333.15 K, x1 = 1); 816.664 ± 0.24 kg/m3 in data set [1] (343.15 K, x1 = 1); 807.649 ± 0.24 kg/m3 in data set [1] (353.15 K, x1 = 1).
For `CNC=O` [N-methylformamide] + Cc1ccccc1C, the mass density in data set [1] (333.15 K, x2 = 0) amounted to 967.461 ± 0.23 kg/m3; in data set [1] (343.15 K, x2 = 0), 958.765 ± 0.23 kg/m3; in data set [1] (353.15 K, x2 = 0), 949.98 ± 0.23 kg/m3.
For `Cc1ccccc1C` [1,2-dimethylbenzene], the mass density in data set [2] (333.15 K, Gas) came out at 0.2087 ± 0.1 kg/m3; in data set [2] (333.15 K, Liquid), 845.839 ± 0.23 kg/m3; in data set [2] (343.15 K, Gas) it was 0.3149 ± 0.1 kg/m3; in data set [2] (343.15 K, Liquid) it was 837.399 ± 0.23 kg/m3; in data set [2] (353.15 K, Gas) it was 0.4587 ± 0.1 kg/m3; in data set [2] (353.15 K, Liquid), 828.528 ± 0.24 kg/m3. Besides, the “vapor or sublimation pressure” value in data set [2] (333.15 K, Liquid) is 5.45 ± 0.02 kPa; in data set [2] (343.15 K, Liquid), 8.47 ± 0.03 kPa; in data set [2] (353.15 K, Liquid), 12.71 ± 0.03 kPa.
In the case of `Cc1cccc(C)c1` [1,3-dimethylbenzene], the mass density is given as 0.2519 ± 0.1 kg/m3 in data set [2] (333.15 K, Gas); 829.305 ± 0.24 kg/m3 in data set [2] (333.15 K, Liquid); 0.3779 ± 0.1 kg/m3 in data set [2] (343.15 K, Gas); 820.443 ± 0.24 kg/m3 in data set [2] (343.15 K, Liquid); 0.5457 ± 0.1 kg/m3 in data set [2] (353.15 K, Gas); 811.602 ± 0.24 kg/m3 in data set [2] (353.15 K, Liquid). Besides, the “vapor or sublimation pressure” value in data set [2] (333.15 K, Liquid) was 6.58 ± 0.03 kPa; in data set [2] (343.15 K, Liquid), 10.17 ± 0.03 kPa; in data set [2] (353.15 K, Liquid) it was 15.12 ± 0.04 kPa.
Regarding `CNC=O` [N-methylformamide], the mass density in data set [2] (333.15 K, Liquid) is 967.461 ± 0.23 kg/m3; in data set [2] (343.15 K, Liquid), 958.765 ± 0.23 kg/m3; in data set [2] (353.15 K, Liquid), 949.98 ± 0.23 kg/m3. Further, the “vapor or sublimation pressure” value in data set [2] (333.15 K, Liquid) is 0.37 ± 0.02 kPa; in data set [2] (343.15 K, Liquid), 0.67 ± 0.02 kPa; in data set [2] (353.15 K, Liquid) it was 1.15 ± 0.02 kPa.
With `Cc1ccccc1C` [1,2-dimethylbenzene] + CNC=O, the mass density was 845.839 ± 0.23 kg/m3 in data set [1] (333.15 K, x1 = 1); 837.399 ± 0.23 kg/m3 in data set [1] (343.15 K, x1 = 1); 828.528 ± 0.24 kg/m3 in data set [1] (353.15 K, x1 = 1).
In the case of `CNC=O` [N-methylformamide] + Cc1cccc(C)c1, the mass density in data set [1] (333.15 K, x2 = 0) was found to be 967.461 ± 0.23 kg/m3; in data set [1] (343.15 K, x2 = 0) it was 958.765 ± 0.23 kg/m3; in data set [1] (353.15 K, x2 = 0), 949.98 ± 0.23 kg/m3.

Values taken from the NIST ThermoML archive (doi:10.1016/j.fluid.2009.12.002).
